We go through four molecules from patent US20040220131A1, “Method for treatment of cancerous angiogenic disorders” (The University of British Columbia, priority 2003, published 2004).

For data set [1], the system named is HUVECS. The settings on record: by the induction of apoptosis; cited from earlier work.
Data set [2] relates to HUVECS. The data set is described as follows: HUVEC cell viability (mts, absorbance 490 and 595 nm) after antisense with or without drug. The class given is cell-based, human. The protocol:
HUVECS were grown for 2 days in wells after seeding at 1200 per well. Antisense oligonucleotide of Seq. ID No. 5 (4 μg/ml with lipofectin) was added in serum free medium and incubated with the cells for 4 hours. Then 100 μl of serum was added and incubation was continued overnight. The next day, 150 μl of drug solution in serum medium was added. After two days, 20 μl of mts solution was added and left for approximately 3 hours. Cell viability was determined as the difference between absorption at 490 and 595 nm.

[3] abbreviates: Table 2, Drug alone (100 nM camptothecin).
Setting [4] is: Table 3, Drug alone (200 nM doxorubicin).
Setting [5] is: Table 1, Drug alone (100 nM paclitaxel).
[6] abbreviates: Table 1 (paclitaxel series), AS 50 nM, no drug.
The mark [7] stands for this setting: Table 1 (paclitaxel series), AS 100 nM, no drug.
[8] abbreviates: Table 1 (paclitaxel series), AS 200 nM, no drug.
The mark [9] stands for this setting: Table 1, Drug (100 nM paclitaxel) + AS 50 nM.
The mark [10] stands for this setting: Table 1, Drug (100 nM paclitaxel) + AS 100 nM.
Where [11] appears, read: Table 1, Drug (100 nM paclitaxel) + AS 200 nM.
[12] abbreviates: Table 2 (camptothecin series), AS 50 nM, no drug.
Setting [13] is: Table 2 (camptothecin series), AS 100 nM, no drug.
The mark [14] stands for this setting: Table 2 (camptothecin series), AS 200 nM, no drug.
Where [15] appears, read: Table 2, Drug (100 nM camptothecin) + AS 50 nM.
Setting [16] is: Table 2, Drug (100 nM camptothecin) + AS 100 nM.
The mark [17] stands for this setting: Table 2, Drug (100 nM camptothecin) + AS 200 nM.
The mark [18] stands for this setting: Table 3 (doxorubicin series), AS 50 nM, no drug.
Setting [19] is: Table 3 (doxorubicin series), AS 100 nM, no drug.
The mark [20] stands for this setting: Table 3 (doxorubicin series), AS 200 nM, no drug.
Setting [21] is: Table 3, Drug (200 nM doxorubicin) + AS 50 nM.
Setting [22] is: Table 3, Drug (200 nM doxorubicin) + AS 100 nM.
Where [23] appears, read: Table 3, Drug (200 nM doxorubicin) + AS 200 nM.

As to `CC[C@@]1(O)C(=O)OCc2c1cc1n(c2=O)Cc2cc3ccccc3nc2-1` [camptothecin, reference compound], the “concentration range that inhibits Huvecs” value in data set [1] is “low nanomolar range”. Moreover, in data set [2] (setting [3]), the “absorbance at 490 nm” value stood at 0.55 and the “absorbance at 595 nm” value is given as 0.07.
For `COc1cccc2c1C(=O)c1c(O)c3c(c(O)c1C2=O)C[C@@](O)(C(=O)CO)C[C@@H]3O[C@H]1C[C@H](N)[C@H](O)[C@H](C)O1` [doxorubicin, reference compound], the “concentration range that inhibits Huvecs” value in data set [1] is “low nanomolar range”. In data set [2] (setting [4]), the “absorbance at 490 nm” value is reported as 0.74 and the “absorbance at 595 nm” value was determined as 0.08.
Turning to `CC(=O)O[C@H]1C(=O)[C@@]2(C)[C@H]([C@H](OC(=O)c3ccccc3)[C@]3(O)C[C@H](OC(=O)[C@H](O)[C@@H](NC(=O)c4ccccc4)c4ccccc4)C(C)=C1C3(C)C)[C@]1(OC(C)=O)CO[C@@H]1C[C@@H]2O` [paclitaxel, reference compound], the “concentration range that inhibits Huvecs” value in data set [1] is on record as “low nanomolar range”. Also, in data set [2] (setting [5]), the “absorbance at 490 nm” value was 0.53 and the “absorbance at 595 nm” value is recorded as 0.12.
With “AS: Antisense oligonucleotide of Seq. ID No. 5, reduces the effective amount of clusterin (antisense CAGCAGCAGAGTCTTCATCAT; listed as DNA, chemistry not given here)”, the “cell viability, response to antisense in the presence of drug versus absence” value is “greater” in data set [2] (FIG. 1, in the presence of 100 nM paclitaxel); “greater” in data set [2] (FIG. 2, in the presence of 100 nM camptothecin); “greater” in data set [2] (FIG. 3, in the presence of 200 nM doxorubicin). Further, the “cell viability, response to antisense concentration” value is given as “dose dependent response” in data set [2] (FIG. 1, paclitaxel series); “dose dependent response” in data set [2] (FIG. 2, camptothecin series); “dose dependent response” in data set [2] (FIG. 3, doxorubicin series). Also, the “absorbance at 490 nm” value is 0.66 in data set [2] (setting [6]); 0.40 in data set [2] (setting [7]); 0.28 in data set [2] (setting [8]); 0.50 in data set [2] (setting [9]); 0.24 in data set [2] (setting [10]); 0.17 in data set [2] (setting [11]). Besides, the “absorbance at 490 nm” value in data set [2] (setting [12]) stood at 0.66; in data set [2] (setting [13]) it was 0.39; in data set [2] (setting [14]) it was 0.21; in data set [2] (setting [15]), 0.53; in data set [2] (setting [16]) it was 0.31; in data set [2] (setting [17]), 0.15. Besides, the “absorbance at 490 nm” value is 0.66 in data set [2] (setting [18]); 0.35 in data set [2] (setting [19]); 0.22 in data set [2] (setting [20]); 0.66 in data set [2] (setting [21]); 0.32 in data set [2] (setting [22]); 0.18 in data set [2] (setting [23]). Moreover, the “absorbance at 595 nm” value in data set [2] (setting [6]) is on record as 0.04; in data set [2] (setting [7]), 0.09; in data set [2] (setting [8]), 0.07; in data set [2] (setting [9]), 0.09; in data set [2] (setting [10]), 0.04; in data set [2] (setting [11]) it was 0.05. Moreover, the “absorbance at 595 nm” value came out at 0.10 in data set [2] (setting [12]); 0.06 in data set [2] (setting [13]); 0.04 in data set [2] (setting [14]); 0.07 in data set [2] (setting [15]); 0.08 in data set [2] (setting [16]); 0.05 in data set [2] (setting [17]). In addition, the “absorbance at 595 nm” value in data set [2] (setting [18]) came out at 0.07; in data set [2] (setting [19]), 0.05; in data set [2] (setting [20]), 0.04; in data set [2] (setting [21]) it was 0.06; in data set [2] (setting [22]), 0.04; in data set [2] (setting [23]), 0.02.
